In ChEMBL document CHEMBL1667744, “Structure--activity relationship studies of 1-(4-chloro-2,5-dimethoxyphenyl)-3-(3-propoxypropyl)thiourea, a non-nucleoside reverse transcriptase inhibitor of human immunodeficiency virus type-1” (Eur J Med Chem, 2011):

system: Human immunodeficiency virus 1; test: Antiviral activity against HIV1 pseudovirus infected in human B cell assessed as inhibition of infection; assay type: functional, organism-based; conditions: Human immunodeficiency virus 1, B

Row | SMILES | IC50 [nM]
1 | CCCOC(=O)CCCNC(=S)Nc1cc(OC)c(Cl)cc1OC | 1.1
2 | CCCOCCCNC(=S)Nc1cc(OC)c(Cl)cc1OC | 168

system: not listed separately; test: Cytotoxicity against HIV1 pseudovirus infected in human B cells; assay type: cell-based; conditions: b cell

Row | SMILES | Activity
3 | CCCSCCCNC(=O)Nc1cc(OC)c(Cl)cc1OC | Toxic
4 | CCCN(CCCNC(=S)Nc1cc(OC)c(Cl)cc1OC)C(=O)OC(C)(C)C | Toxic

system: Human immunodeficiency virus 1; test: Antiviral activity against HIV1 pseudovirus infected in human B cell assessed as inhibition of infection at 5 uM after 48 to 72 hrs by flow cytometry; assay type: functional; conditions: Human immunodeficiency virus 1, B

Row | SMILES | inhibition at 5 µM [%]
5 | CCCCCCNC(=S)Nc1cc(OC)c(Cl)cc1OC | 87
6 | CCCCOC(=O)CCCNC(=S)Nc1cc(OC)c(Cl)cc1OC | 29
7 | CCCSCCCNC(=S)Nc1cc(OC)c(Cl)cc1OC | 24
8 | CCCOC(=O)CCCNC(=S)Nc1cc(OC)c(Cl)cc1OC | 17
9 | CCCOC(=O)CCNC(=S)Nc1cc(OC)c(Cl)cc1OC | 66
10 | CCOC(=O)CCNC(=S)Nc1cc(OC)c(Cl)cc1OC | 66
11 | COCCCNC(=S)Nc1cc(OC)c(Cl)cc1OC | 105
12 | CCCCCCCNC(=S)Nc1cc(OCC)c(Cl)cc1OCC | 69
13 | CCC(=O)OCCCNC(=S)Nc1cc(OC)c(Cl)cc1OC | 86
14 | COc1cc(N=C(S)NCCCO)c(OC)cc1Cl | 92
15 | CCCNCCCNC(=S)Nc1cc(OC)c(Cl)cc1OC | 83
16 | COC(=O)CCCNC(=O)Nc1cc(OC)c(Cl)cc1OC | 87
17 | CCOC(=O)CCCNC(=O)Nc1cc(OC)c(Cl)cc1OC | 65
18 | CCCOCCCNC(=S)Nc1cc(OC)c([N+](=O)[O-])cc1OC | 107
19 | COC(=O)CCCNC(=S)Nc1cc(OC)c(Cl)cc1OC | 73
20 | CCCNC(=O)CCCNC(=S)Nc1cc(OC)c(Cl)cc1OC | 69
21 | CCCCOC(=O)CCNC(=S)Nc1cc(OC)c(Cl)cc1OC | 43

Row | SMILES | inhibition at 5 µM [%]
22 | CCCOCCCNC(=O)Nc1cc(OC)c(Cl)cc1OC | 47
23 | CCCCCCCNC(=S)Nc1cc(OC)c(Cl)cc1OC | 87
24 | COC(=O)CCNC(=S)Nc1cc(OC)c(Cl)cc1OC | 56
25 | CCCC(=O)OCCCN/C(=N/c1cc(OC)c(Cl)cc1OC)SC(=O)CCC | 87
26 | COc1cc(NC(=S)NCCCOC(C)=O)c(OC)cc1Cl | 123
27 | COc1cc(NC(=S)NCCC(=O)O)c(OC)cc1Cl | 91
28 | CCCC(=O)OCCCNC(=S)Nc1cc(OC)c(Cl)cc1OC | 65
29 | COc1cc(NC(=S)N2CCCC2=O)c(OC)cc1Cl | 104
30 | CCC[S+]([O-])CCCNC(=S)Nc1cc(OC)c(Cl)cc1OC (stereo not drawn) | 91
31 | CCCCCCCNC(=O)Nc1cc(OC)c(Cl)cc1OC | 89
32 | CCCSC(=O)CCCNC(=S)Nc1cc(OC)c(Cl)cc1OC | 79
33 | CCCOCCNC(=S)Nc1cc(OC)c(Cl)cc1OC | 46
34 | CCOCCCNC(=S)Nc1cc(OC)c(Cl)cc1OC | 66
35 | CCCOCCCNC(=S)Nc1cc(OCC)c(Cl)cc1OCC | 58
36 | CCOC(=O)CCCNC(=S)Nc1cc(OC)c(Cl)cc1OC | 24
37 | CCCOCCCNC(=S)Nc1cc(OCCC)c(Cl)cc1OCCC | 107
38 | CCCCCCNC(=S)Nc1cc(OCC)c(Cl)cc1OCC | 107
